Assay results published in patent US10294202B2, “Pyrrolidinones as herbicides” (FMC Corporation, priority 2013, dated 2019).

How the values were obtained:
[1] = tested on: soybean; test: Test C pre-/postemergence herbicide test; type: in vivo, Glycine max
In short: (§1)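 Response scores range from 0, meaning no effect, to 100, meaning complete control, assigned visually by comparison with controls roughly two weeks (13 to 15 days) after spraying. Applications were made preemergence to seeded loam–sand soil and postemergence to 1- to 4-leaf plants.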

[2] = tested on: sedge, umbrella; test: Test B flooded paddy test; type: in vivo, Cyperus difformis; details: 250 g ai/ha, Flood; scale of 0 to 100 where 0 is no effect and 100 is complete control
In short: (§2)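 Paddy-water application at a 3 cm flood, young plants having two leaves. Water level maintained; greenhouse, 13–15 days; visual 0–100 control rating.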

[3] = tested on: lambsquarters; test: Test C pre-/postemergence herbicide test; type: in vivo, Chenopodium album
In short: as §1

[4] = tested on: ragweed; test: Test C pre-/postemergence herbicide test; type: in vivo, Ambrosia elatior
In short: as §1

[5] = tested on: johnsongrass; test: Test C pre-/postemergence herbicide test; type: in vivo, Sorghum halepense
In short: as §1

[6] = tested on: oat, wild; test: Test C pre-/postemergence herbicide test; type: in vivo, Avena fatua
In short: as §1

[7] = tested on: morningglory; test: Test C pre-/postemergence herbicide test; type: in vivo, Ipomoea coccinea
In short: as §1

[8] = tested on: corn; test: Test A pre-/postemergence herbicide test; type: in vivo, Zea mays; details: for Corn plant response rating: Preemergence, visual rating on 0 to 100 scale (0 no effect, 100 complete control)
In short: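 Scoring was visual, relative to untreated controls, on a 0–100 scale after about 10 greenhouse days. Preemergence treatment used a directed soil spray over seeded loam/sand; postemergence treatment targeted one- to two-leaf plants of 2–10 cm.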

[9] = tested on: rice; test: Test B flooded paddy test; type: in vivo, Oryza sativa; details: 250 g ai/ha, Flood; scale of 0 to 100 where 0 is no effect and 100 is complete control
In short: as §2

[10] = Postemergence, 31 g ai/ha, scale 0 (no effect) to 100 (complete control)
[11] = Postemergence, 62 g ai/ha, scale 0 to 100 (0 no effect, 100 complete control)
[12] = Postemergence, 125 g ai/ha, scale 0 to 100 (0 no effect, 100 complete control)
[13] = Preemergence, 62 g ai/ha, scale 0 to 100
[14] = Preemergence, 125 g ai/ha, scale 0 to 100 (0 no effect, 100 complete control)
[15] = Postemergence, 125 g ai/ha, 0 to 100 scale, 0 no effect, 100 complete control
[16] = Postemergence, 500 g ai/ha, 0 to 100 scale (0 no effect, 100 complete control)
[17] = preemergence, 500 g ai/ha, 0 to 100 scale
[18] = Preemergence, 31 g ai/ha, scale 0 to 100, 0 is no effect and 100 is complete control

Compound | Plant response rating, Soybean [1, 13] | Plant response rating, Soybean [1, 14] | Plant response rating, Sedge, Umbrella [2] | Plant response rating, Lambsquarters [3, 14] | Plant response rating, Ragweed [4, 13] | Plant response rating, Ragweed [4, 14] | Plant response rating, Johnsongrass [5, 13] | Plant response rating, Johnsongrass [5, 14] | Plant response rating, Oat, Wild [6, 13] | Plant response rating, Oat, Wild [6, 14] | Plant response rating, Morningglory [7, 14] | Plant response rating, Corn [8, 15] | Plant response rating, Corn [8, 16] | Corn plant response rating ([8]; 125 g ai/ha) | Plant response rating, Corn [8, 17] | Plant response rating, Rice [9] | other results
O=C1NCC(c2ccc(F)c(Cl)c2)C1C(=O)Nc1ccccc1F (stereo not drawn) [Compound 60] | 25 | 25 | 60 | 10 | 10 | 25 | 20 | 20 | 0 | 5 | 10 | 0 | 60 | 0 | 0 | 0 | Plant response rating, Soybean [1, 10]: 0; Plant response rating, Soybean [1, 11]: 0; Plant response rating, Soybean [1, 12]: 5; Plant response rating, Lambsquarters [3, 10]: 5; Plant response rating, Lambsquarters [3, 11]: 20; Plant response rating, Lambsquarters [3, 12]: 20; Plant response rating, Ragweed [4, 10]: 10; Plant response rating, Ragweed [4, 11]: 25; Plant response rating, Ragweed [4, 12]: 35; Plant response rating, Johnsongrass [5, 10]: 5; Plant response rating, Johnsongrass [5, 11]: 5; Plant response rating, Johnsongrass [5, 12]: 5; Plant response rating, Oat, Wild [6, 10]: 0; Plant response rating, Oat, Wild [6, 11]: 0; Plant response rating, Oat, Wild [6, 12]: 0; Plant response rating, Morningglory [7, 10]: 5; Plant response rating, Morningglory [7, 11]: 10; Plant response rating, Morningglory [7, 12]: 10; Plant response rating, Morningglory [7, 13]: 10
O=C1NCC(c2cccc(OC(F)(F)F)c2)C1C(=O)Nc1ccccc1F (stereo not drawn) [Compound 69] | 0 | 0 | 65 | 65 | 0 | 0 | 0 | 0 | 0 | 5 | 25 | 20 | 90 | 0 | 0 | 30 | Soybean plant response rating [1, 18]: 0; Plant response rating (scale of 0 to 100), Soybean ([1]; Preemergence, 250 g ai/ha): 0; Lambsquarters plant response rating [3, 18]: 35; Plant response rating, Lambsquarters [3, 13]: 35; Plant response rating (scale of 0 to 100), Lambsquarters ([3]; Preemergence, 250 g ai/ha): 85; Ragweed plant response rating [4, 18]: 0; Plant response rating (scale of 0 to 100), Ragweed ([4]; Preemergence, 250 g ai/ha): 20; Johnsongrass plant response rating [5, 18]: 0; Plant response rating (scale of 0 to 100), Johnsongrass ([5]; Preemergence, 250 g ai/ha): 0; Plant response rating (scale of 0 to 100), Oat, Wild ([6]; Preemergence, 250 g ai/ha): 5; Morningglory plant response rating [7, 18]: 20; Plant response rating (scale of 0 to 100), Morningglory ([7]; Preemergence, 250 g ai/ha): 25
